Measurements from ChEMBL document CHEMBL1201862, “PubChem BioAssay data set” (2004).
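96-well plates; 48 h exposure; 5 concentrations. Endpoints by linear interpolation between flanking doses. Not reached: highest tested concentration assigned. GI50 = concentration required for 50% inhibition of growth.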 Calls of active or inactive are those of the source. Rule as the data show it: active = GI50 up to about 1.1 µM and inactive = higher.

How the values were obtained:
Assay in all cases: NCI-60 cell line screen, 48 h
[1] = tested on: NCI-H522
[2] = tested on: DMS-273
[3] = tested on: SF-539
[4] = tested on: M19-MEL
[5] = tested on: HCC 2998
[6] = tested on: NCI-H226
[7] = tested on: HT-29
[8] = tested on: Malme-3M
[9] = tested on: COLO 205
[10] = tested on: RXF 393
[11] = tested on: OVCAR-4
[12] = tested on: SK-OV-3
[13] = tested on: T47D
[14] = tested on: NCI-H460
[15] = tested on: SNB-19
[16] = tested on: LXFL 529
[17] = tested on: MOLT-4
[18] = tested on: Hs-578T
[19] = tested on: TK-10
[20] = tested on: MDA-MB-435
[21] = tested on: DLD-1
[22] = tested on: HOP-92
[23] = tested on: OVCAR-8
[24] = tested on: PC-3
[25] = tested on: SW-620
[26] = tested on: OVCAR-3
[27] = tested on: SF-295
[28] = tested on: UACC-62
[29] = tested on: NCI/ADR-RES
[30] = tested on: U-251
[31] = tested on: KM-20L2
[32] = tested on: BT-549
[33] = tested on: SN12C
[34] = tested on: EKVX
[35] = tested on: A498
[36] = tested on: DU-145
[37] = tested on: XF498
[38] = tested on: IGROV-1
[39] = tested on: SR
[40] = tested on: RXF 631
[41] = tested on: NCI-H23
[42] = tested on: HOP-18
[43] = tested on: DMS-114
[44] = tested on: UACC-257
[45] = tested on: 786-0
[46] = tested on: LOX IMVI
[47] = tested on: A549
[48] = tested on: SNB-78
[49] = tested on: CCRF-CEM
[50] = tested on: ACHN
[51] = tested on: SK-MEL-2
[52] = tested on: HOP-62
[53] = tested on: HCT-15
[54] = tested on: SNB-75
[55] = tested on: UO-31
[56] = tested on: CAKI-1
[57] = tested on: MDA-MB-231
[58] = tested on: OVCAR-5
[59] = tested on: M14
[60] = tested on: HCT-116
[61] = tested on: HL-60
[62] = tested on: MCF7
[63] = tested on: RPMI-8226
[64] = tested on: SK-MEL-5
[65] = tested on: K562
[66] = tested on: KM12
[67] = tested on: SF-268
[68] = tested on: SK-MEL-28

Structure (SMILES): c1ccc2c(NCCCCCCCCNc3c4ccccc4nc4ccccc34)c3ccccc3nc2c1
- GI50 [1]: < 0.0247 µM (active)
- GI50 [2]: 0.043 µM (active)
- GI50 [3]: 0.233 µM (active)
- GI50 [4]: 1.08 µM (active)
- GI50 [5]: 0.0723 µM (active)
- GI50 [6]: 1.35 µM (inactive)
- GI50 [7]: < 0.0281 µM (active)
- GI50 [8]: 1.14 µM (inactive)
- GI50 [9]: 0.113 µM (active)
- GI50 [10]: 0.0782 µM (active)
- GI50 [11]: 0.887 µM (active)
- GI50 [12]: 0.553 µM (active)
- GI50 [13]: 590 nM (active)
- GI50 [14]: 0.0428 µM (active)
- GI50 [15]: 0.332 µM (active)
- GI50 [16]: 0.213 µM (active)
- GI50 [17]: 0.0419 µM (active)
- GI50 [18]: 478 nM (active)
- GI50 [19]: 1.38 µM (inactive)
- GI50 [20]: 1.04 µM (active)
- GI50 [21]: 0.143 µM (active)
- GI50 [22]: 1.48 µM (inactive)
- GI50 [23]: 0.27 µM (active)
- GI50 [24]: 54.8 nM (active)
- GI50 [25]: 0.0506 µM (active)
- GI50 [26]: 0.37 µM (active)
- GI50 [27]: 0.693 µM (active)
- GI50 [28]: 0.684 µM (active)
- GI50 [29]: 4.15 µM (inactive)
- GI50 [30]: 0.184 µM (active)
- GI50 [31]: 0.354 µM (active)
- GI50 [32]: 1.16 µM (inactive)
- GI50 [33]: 0.356 µM (active)
- GI50 [34]: 0.323 µM (active)
- GI50 [35]: 1.26 µM (inactive)
- GI50 [36]: 83.8 nM (active)
- GI50 [37]: 1.04 µM (active)
- GI50 [38]: 0.0927 µM (active)
- GI50 [39]: 0.024 µM (active)
- GI50 [40]: 0.178 µM (active)
- GI50 [41]: 0.257 µM (active)
- GI50 [42]: 1.76 µM (inactive)
- GI50 [43]: 1.01 µM (active)
- GI50 [44]: 1.37 µM (inactive)
- GI50 [45]: 0.106 µM (active)
- GI50 [46]: 0.181 µM (active)
- GI50 [47]: 0.0948 µM (active)
- GI50 [48]: 1.01 µM (active)
- GI50 [49]: < 0.0278 µM (active)
- GI50 [50]: 0.0703 µM (active)
- GI50 [51]: 0.733 µM (active)
- GI50 [52]: 0.224 µM (active)
- GI50 [53]: 528 nM
- GI50 [54]: 1.19 µM (inactive)
- GI50 [55]: 1.35 µM (inactive)
- GI50 [56]: 0.546 µM (active)
- GI50 [57]: 48.2 nM (active)
- GI50 [58]: 0.23 µM (active)
- GI50 [59]: 0.975 µM (active)
- GI50 [60]: 0.0392 µM (active)
- GI50 [61]: 0.125 µM (active)
- GI50 [62]: 57.8 nM (active)
- GI50 [63]: 0.0828 µM (active)
- GI50 [64]: 1.39 µM (inactive)
- GI50 [65]: 0.0469 µM (active)
- GI50 [66]: 0.187 µM (active)
- GI50 [67]: 0.63 µM (active)

Structure (SMILES): Nc1nc2ncn(CC(O)COC(=O)c3ccccc3)c2c(=O)[nH]1 (centres undefined)
- GI50 [1]: > 100 µM (inactive)
- GI50 [2]: > 100 µM (inactive)
- GI50 [3]: > 100 µM (inactive)
- GI50 [4]: > 100 µM (inactive)
- GI50 [6]: > 100 µM (inactive)
- GI50 [7]: > 100 µM (inactive)
- GI50 [8]: > 100 µM (inactive)
- GI50 [9]: > 100 µM (inactive)
- GI50 [10]: > 100 µM (inactive)
- GI50 [11]: > 100 µM (inactive)
- GI50 [12]: > 100 µM (inactive)
- GI50 [14]: > 100 µM (inactive)
- GI50 [16]: > 100 µM (inactive)
- GI50 [19]: > 100 µM (inactive)
- GI50 [21]: > 100 µM (inactive)
- GI50 [22]: > 100 µM (inactive)
- GI50 [23]: > 100 µM (inactive)
- GI50 [25]: > 100 µM (inactive)
- GI50 [26]: > 100 µM (inactive)
- GI50 [27]: > 100 µM (inactive)
- GI50 [28]: > 100 µM (inactive)
- GI50 [30]: > 100 µM (inactive)
- GI50 [31]: > 100 µM (inactive)
- GI50 [33]: > 100 µM (inactive)
- GI50 [34]: > 100 µM (inactive)
- GI50 [35]: > 100 µM (inactive)
- GI50 [37]: > 100 µM (inactive)
- GI50 [38]: > 100 µM (inactive)
- GI50 [39]: > 100 µM (inactive)
- GI50 [40]: > 100 µM (inactive)
- GI50 [41]: > 100 µM (inactive)
- GI50 [42]: > 100 µM (inactive)
- GI50 [43]: > 100 µM (inactive)
- GI50 [44]: > 100 µM (inactive)
- GI50 [45]: > 100 µM (inactive)
- GI50 [46]: > 100 µM (inactive)
- GI50 [47]: > 100 µM (inactive)
- GI50 [48]: 48.3 µM (inactive)
- GI50 [49]: > 100 µM (inactive)
- GI50 [50]: > 100 µM (inactive)
- GI50 [51]: > 100 µM (inactive)
- GI50 [52]: > 100 µM (inactive)
- GI50 [53]: > 100000 nM
- GI50 [54]: > 100 µM (inactive)
- GI50 [55]: > 100 µM (inactive)
- GI50 [56]: > 100 µM (inactive)
- GI50 [58]: > 100 µM (inactive)
- GI50 [68]: > 100 µM (inactive)
- GI50 [59]: > 100 µM (inactive)
- GI50 [60]: > 100 µM (inactive)
- GI50 [61]: > 100 µM (inactive)
- GI50 [63]: > 100 µM (inactive)
- GI50 [64]: > 100 µM (inactive)
- GI50 [65]: > 100 µM (inactive)
- GI50 [66]: > 100 µM (inactive)
- GI50 [67]: > 100 µM (inactive)

Structure (SMILES): CC1=CC(=O)CCC2(C)C1CC[C@@H]2OC=O (some centres undefined)
- GI50 [1]: > 100 µM (inactive)
- GI50 [2]: > 100 µM (inactive)
- GI50 [3]: > 100 µM (inactive)
- GI50 [4]: > 100 µM (inactive)
- GI50 [5]: > 100 µM (inactive)
- GI50 [6]: > 100 µM (inactive)
- GI50 [7]: > 100 µM (inactive)
- GI50 [9]: > 100 µM (inactive)
- GI50 [10]: > 100 µM (inactive)
- GI50 [11]: > 100 µM (inactive)
- GI50 [12]: > 100 µM (inactive)
- GI50 [14]: > 100 µM (inactive)
- GI50 [15]: > 100 µM (inactive)
- GI50 [16]: > 100 µM (inactive)
- GI50 [17]: > 100 µM (inactive)
- GI50 [19]: > 100 µM (inactive)
- GI50 [21]: > 100 µM (inactive)
- GI50 [22]: > 100 µM (inactive)
- GI50 [23]: > 100 µM (inactive)
- GI50 [25]: > 100 µM (inactive)
- GI50 [26]: > 100 µM (inactive)
- GI50 [27]: > 100 µM (inactive)
- GI50 [28]: > 100 µM (inactive)
- GI50 [30]: > 100 µM (inactive)
- GI50 [31]: 82.2 µM (inactive)
- GI50 [33]: > 100 µM (inactive)
- GI50 [34]: > 100 µM (inactive)
- GI50 [37]: > 100 µM (inactive)
- GI50 [38]: > 100 µM (inactive)
- GI50 [39]: > 100 µM (inactive)
- GI50 [40]: > 100 µM (inactive)
- GI50 [41]: > 100 µM (inactive)
- GI50 [42]: > 100 µM (inactive)
- GI50 [43]: > 100 µM (inactive)
- GI50 [44]: > 100 µM (inactive)
- GI50 [45]: > 100 µM (inactive)
- GI50 [46]: > 100 µM (inactive)
- GI50 [47]: > 100 µM (inactive)
- GI50 [48]: > 100 µM (inactive)
- GI50 [49]: > 100 µM (inactive)
- GI50 [50]: > 100 µM (inactive)
- GI50 [51]: > 100 µM (inactive)
- GI50 [52]: 53.6 µM (inactive)
- GI50 [54]: 93.5 µM (inactive)
- GI50 [55]: > 100 µM (inactive)
- GI50 [56]: > 100 µM (inactive)
- GI50 [58]: > 100 µM (inactive)
- GI50 [68]: > 100 µM (inactive)
- GI50 [59]: > 100 µM (inactive)
- GI50 [60]: > 100 µM (inactive)
- GI50 [61]: > 100 µM (inactive)
- GI50 [63]: > 100 µM (inactive)
- GI50 [64]: > 100 µM (inactive)
- GI50 [65]: > 100 µM (inactive)
- GI50 [66]: > 100 µM (inactive)
- GI50 [67]: > 100 µM (inactive)
